molecular target: T1, recombinant human GST-Syk (Homo sapiens, UniProt P43405); test: Homogeneous Time-Resolved Fluorescence (HTRF) assay for the recombinant human Syk enzyme; assay type: biochemical; conditions: recombinant human GST-Syk 5 pM, ATP 25 μM, 10-dose titration 10 μM to 0.508 nM; read-out: rhSYK Activity IC50
T1 construct: purchased Carna Biosciences 08-176
Outline: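 GST-hSyk fusion protein phosphorylated a peptide for 45 min at room temperature. The reaction was quenched with 2 nM Eu-anti-phosphotyrosine antibody and 70 nM SA-APC in 15 mM Tris pH 7.5, 40 mM EDTA, 0.01% Tween 20. The HTRF signal was read after 30 min.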

Structure (SMILES) | IC50 [nM]
Cc1cc(Nc2cc(OC3CCOC3)ccn2)nc(-c2cn(C(C)c3ccc(C(=O)O)cc3)nn2)c1 (stereo not drawn) [Example 2.5, 4-{1-[4-(4-methyl-6-{[4-(tetrahydrofuran-3-yloxy)pyridin-2-yl]amino}pyridin-2-yl)-1H-1,2,3-triazol-1-yl]ethyl}benzoic acid] | 132
Cc1cc(Nc2ncc(F)c(C(F)F)n2)cc(-c2cn(CC3OC(=O)NC3C)nn2)c1 (single isomer, unassigned) [Example 7.40, 5-{[4-(3-{[4-(difluoromethyl)-5-fluoropyrimidin-2-yl]amino}-5-methylphenyl)-1H-1,2,3-triazol-1-yl]methyl}-4-methyl-1,3-oxazolidin-2-one] | 25.7
Cc1cc(Nc2nccc(C(F)(F)F)n2)cc(-c2cn(C(C)C(O)CC#N)nn2)c1 (single isomer, unassigned) [Example 4.9, 3-hydroxy-4-[4-(3-methyl-5-{[4-(trifluoromethyl)pyrimidin-2-yl]amino}phenyl)-1H-1,2,3-triazol-1-yl]pentanenitrile] | 25.2
Cc1cc(Nc2cc(C(F)(F)F)ccn2)nc(-c2cn(C(C)C(=O)NCCc3c[nH]c4ccc(OCc5ccccc5)cc34)nn2)c1 (stereo not drawn) [Example 1.30, N-{2-[5-(benzyloxy)-1H-indol-3-yl]ethyl}-2-[4-(4-methyl-6-{[4-(trifluoromethyl)pyridin-2-yl]amino}pyridin-2-yl)-1H-1,2,3-triazol-1-yl]propanamide] | 1620
Cc1cc(Nc2cc(C(F)(F)F)ccn2)nc(-c2cn(C(C(N)=O)c3ccccc3)nn2)c1 (stereo not drawn) [Example 1.18, 2-[4-(4-methyl-6-{[4-(trifluoromethyl)pyridin-2-yl]amino}pyridin-2-yl)-1H-1,2,3-triazol-1-yl]-2-phenylacetamide] | 11.8
Cc1cc(Nc2nccc(C(F)(F)F)n2)cc(-c2cn(CC3(O)CCC(C(=O)O)C(C)(C)C3)nn2)c1 (single isomer, unassigned) [Example 3.3, (R or S) 4-hydroxy-2,2-dimethyl-4-{[4-(3-methyl-5-{4-(trifluoromethyl)pyrimidin-2-yl]amino}phenyl)-1H-1,2,3-triazol-1-yl]methyl}cyclohexanecarboxylic acid] | 54.3
Cc1cc(Nc2cc(C(F)(F)F)ccn2)nc(-c2cn(CC(C)(O)C(N)=O)nn2)c1 (stereo not drawn) [Example 1.12, 2-hydroxy-2-methyl-3-[4-(4-methyl-6-{[4-(trifluoromethyl)pyridin-2-yl]amino}pyridin-2-yl)-1H-1,2,3-triazol-1-yl]propanamide] | 4.9
Cc1cc(Nc2cc(C(F)(F)F)ccn2)nc(-c2cn(C3CCC(C(N)=O)C(C)(C)C3)nn2)c1 (single isomer, unassigned) [Example 1.5, 2,2-dimethyl-4-[4-(4-methyl-6-{[4-(trifluoromethyl)pyridin-2-yl]amino}pyridin-2-yl)-1H-1,2,3-triazol-1-yl]cyclohexanecarboxamide] | 8

Results, then the molecule that gave them:

IC50 [nM] | Structure (SMILES)
23.8 | Cc1cc(Nc2cc(C(F)(F)F)ccn2)nc(-c2cn(C3CCNC(=O)CC3)nn2)c1 (racemic) [Example 11.2, 5-[4-(4-methyl-6-{[4-(trifluoromethyl)pyridin-2-yl]amino}pyridin-2-yl)-1H-1,2,3-triazol-1-yl]azepan-2-one]
118 | Cc1cc(Nc2cc(C(F)(F)F)ccn2)nc(-c2cn(C3CCNC(=O)CC3)nn2)c1 (racemic) [Example 11.3, 5-[4-(4-methyl-6-{[4-(trifluoromethyl)pyridin-2-yl]amino}pyridin-2-yl)-1H-1,2,3-triazol-1-yl]azepan-2-one]
161 | Cc1cc(Nc2nccc(C(F)(F)F)n2)cc(-n2cc(C3(O)CCNC(=O)CC3)nn2)c1 (stereo not drawn) [Example 11.4, 5-hydroxy-5-[1-(3-methyl-5-{[4-(trifluoromethyl)pyrimidin-2-yl]amino}phenyl)-1H-1,2,3-triazol-4-yl]azepan-2-one]
14.9 | COC(=O)C1(n2cc(-c3cc(C)cc(Nc4cc(C(F)(F)F)ccn4)n3)nn2)CC1 [Example 8.1, Methyl 1-[4-(4-methyl-6-{[4-(trifluoromethyl)pyridin-2-yl]amino}pyridin-2-yl)-1H-1,2,3-triazol-1-yl]cyclopropanecarboxylate]

Reference: patent US9586931B2 (Merck Sharp & Dohme Corp., priority 2012, dated 2017)
